Entries after “also recorded” stand apart in the source; their conditions may differ.
How the values were obtained:
HLA-DR1301 [1] = molecular target: T1, HLA-DR1301 (Homo sapiens, UniProt P01903+P01911, A100E/A169T/K41T/L162R/M171V/P40S/Q125H/Q178H/Q39Y/Q99D/R42S/S66N/T262R/W38E/Y61H); assay: IL-2 secretion functional blocking assay, DR1301-restricted TCR transfectants with MBP 152-165; assay type: cell-based; conditions: for specificity for DR-1301 as compared with DR-1501, by inhibitory effect on IL-2 secretion: DR1301- versus DR1501-restricted TCR transfectants; for inhibition of IL-2 secretion / blocking of antigen presentation by DR-1301: DR1301 and TCR transfectants, MBP peptide, IL-2 in supernatant by ELISA
T1 construct: expressed in transfected cells; host or cells: DAP.3 murine fibroblasts (gift of C. Hurley and R. Rosen-Bronson)
Description: The murine T-cell hybridoma cell line BW58α-β- (a gift of […] and W. Born) was used for transfection of human TCRα and β cDNA isolated from patients with multiple sclerosis (Hastings, 1996). The parental DAP.3 murine fibroblast cell line was used for transfection of DR(α,β1*1301) or DR((α,β*1501) as previously described (a gift of C. Hurley and R. Rosen-Bronson)) ([Hurley, 1995), [Posch, 1995), [Rosen-Bronson, 1991). All cells lines were maintained in DMEM supplemented with 10% fetal calf serum, 50 U/ml penicillin G, 50 μg/ml streptomycin, 1 mM sodium pyruvate, 2 mM glutamine, and 10 mM HEPES buffer (all Gibco/BRL, Gaithersburg, Md.). TCR- and HLA-transfectants were expanded using 1 mg/ml G418 (Gibco/BRL), or 1 mg/ml G418 and 1 mg/ml hygromycin (Calbiochem, San Diego, Calif.), respectively. Cells were washed and resuspended in DMEM complete medium without antibodies. 10^5 cells of the TCR-transfected or untransfected (control) BW58α-β- cells and an equal number of DR-transfected or untransfected (control) Dap.3 cells were incubated with MBP 152-165, or MBP 83-97 and various concentrations of compound, using an U-bottom 96 well plate (Costar). Cell culture supernatants were harvested after […] and stored at -70° C. until use. IL-2 cytokine concentrations (pg/ml) of supernatants were measured by ELISA (Genzyme, Cambridge, Mass.) according to the manufacturer's instructions. The activity of compounds identified by MCDOCK in functional assays that measure inhibition of IL-2 secretion by DR1301 and DR1501-restricted TCR transfectants using compound #105 and several other compounds was evaluated. The results obtained with compound #105 are contained in FIG. 3. In the figure t1 and t2 represent dose-response curves generated in two different experiments. TCR and DR transfectants were incubated for 36 hours with or without compound and the appropriate MBP peptide. IL-2 concentration of the supernatants was then analyzed by ELISA.

HLA-DR1501 = molecular target: T2, HLA-DR1501 (Homo sapiens, UniProt P01903+P01911); assay: IL-2 secretion functional blocking assay, DR1501-restricted TCR transfectants with MBP 83-97; assay type: cell-based; conditions: DR1501 and TCR transfectants, MBP peptide, IL-2 in supernatant by ELISA
T2 construct: expressed in transfected cells; host or cells: DAP.3 murine fibroblasts (gift of C. Hurley and R. Rosen-Bronson)
Description: The murine T-cell hybridoma cell line BW58α-β- (a gift of B. Malissen and W. Born) was used for transfection of human TCRα and β cDNA isolated from patients with multiple sclerosis (Hastings, 1996). The parental DAP.3 murine fibroblast cell line was used for transfection of DR(α,β1*1301) or DR((α,β*1501) as previously described (a gift of C. Hurley and R. Rosen-Bronson)) ([Hurley, 1995), [Posch, 1995), [Rosen-Bronson, 1991). All cells lines were maintained in DMEM supplemented with 10% fetal calf serum, 50 U/ml penicillin G, 50 μg/ml streptomycin, 1 mM sodium pyruvate, 2 mM glutamine, and 10 mM HEPES buffer (all Gibco/BRL, Gaithersburg, Md.). TCR- and HLA-transfectants were expanded using 1 mg/ml G418 (Gibco/BRL), or 1 mg/ml G418 and 1 mg/ml hygromycin (Calbiochem, San Diego, Calif.), respectively.
Cells were washed and resuspended in DMEM complete medium without antibodies. […] IL-2 cytokine concentrations (pg/ml) of supernatants were measured by ELISA (Genzyme, Cambridge, Mass.) according to the manufacturer's instructions.
The activity of compounds identified by MCDOCK in functional assays that measure inhibition of IL-2 secretion by DR1301 and DR1501-restricted TCR transfectants using compound #105 and several other compounds was evaluated. […] IL-2 concentration of the supernatants was then analyzed by ELISA.

HLA-DR1301 [2] = molecular target: T1, HLA-DR1301; assay: Competitive peptide-binding assay with biotinylated MBP peptide; conditions: analog at 6.25 μM to 400 μM, OD at 450 nm
Method: 1.5×10^6 HLA-DR-transfected Dap.3 cells were washed in Hanks' Balanced Salt Solution, fixed with 1% paraformaldehyde, washed with RPMI medium and PBS, and resuspended in binding buffer. Biotinylated MBP peptide was added at 200 μg/ml (for MBP 152-165) or 1 μg/ml (for MBP 83-97). BSA was added at 1%. The blocking compound (analogue 6) was added at multiple concentrations ranging from 6.25 μM to 400 μM and incubated overnight in a shaking water bath at 37° C. The samples were then washed and lysed with 100 μl lysis buffer containing 1% nonidet-P40 on ice for 40 min. After centrifugation, the supernatant containing the cell membrane fragments was […] to a 96-well plate pre-coated with the L243 monoclonal antibody that binds to all HLA-DR molecules. The lysis buffer was neutralized with 100 μl n-octyl-β-D-glucopyranoside overnight at 4° C. The samples were then washed and incubated with streptavidin-peroxidase for 1 hour at room temperature. […] OD was measured by an ELISA reader at 450 nm. Competition of the compound for the MBP peptide was calculated according to the following formula: [formula]
This assay evaluates the binding of biotinylated MBP peptide to HLA-DR1301 in the presence of different concentrations of the analog (analog 6 of lead compound). The amounts of MBP peptide bound (label) to the HLA molecule are then quantitated based on the amount of biotin detected.

| SMILES | specificity for DR-1301 as compared with DR-1501, by inhibitory effect on IL-2 secretion (HLA-DR1301 [1]) | inhibition of IL-2 secretion / blocking of antigen presentation by DR-1301 (HLA-DR1301 [1]) | inhibition of IL-2 secretion / blocking of antigen presentation by DR-1301 (HLA-DR1301 [1]; listed as lead compound #105) | reversal of inhibition of IL-2 production by increasing MBP 152-165 peptide concentration (HLA-DR1301 [1]; MBP 0 to 1200 micrograms/ml, DR1301-restricted TCR transfectants) | inhibition of IL-2 secretion / blocking of antigen presentation by DR-1501 (HLA-DR1501) | specificity for DR-1301 as compared with DR-1501, by inhibitory effect on IL-2 secretion (HLA-DR1301 [1]; listed as #6) | competition with biotinylated MBP peptide for binding to DR1301 (HLA-DR1301 [2]) |
| --- | --- | --- | --- | --- | --- | --- | --- |
| CC(=O)Nc1ccc(NCC(=O)Nn2cnc3ccc(S(=O)(=O)Nc4ccc(NC(C)=O)cc4)cc3c2=O)cc1 [compound #105, 2-{[4-(acetylamino)phenyl]amino}-N-[6-({[4-(acetylamino)phenyl]amino}sulfonyl)-4-oxo(3-hydroquinazolin-3-yl)]acetamide] | most effective in discriminating | strong inhibition | significant effect | best dose-response curves | weaker inhibition | – | – |
| O=C(CNc1ccc(Cl)cc1Cl)NC1C=Cc2ccc(S(=O)(=O)Nc3ccc(Cl)cc3Cl)cc2C1=O (stereo not drawn) [analog #6, 2-[(2,4-dichlorophenyl)amino]-N-(7-{[(2,4-dichlorophenyl)amino]sulfonyl}-1-oxo(2-2-hydronaphthyl))acetamide] | greater degree of specificity for DR-1301 as compared with DR-1501 | – | – | – | – | greater specificity for DR1301 than #105 | specific binding of the compound to HLA-DR1301; also recorded: specifically competes with MBP peptide for binding to purified DR1301 molecules |
| COc1ccc(NS(=O)(=O)c2ccc3ncn(NS(=O)(=O)c4ccc(I)cc4)c(=O)c3c2)cc1 [analog #14, 3-{[(4-iodophenyl)sulfonyl]amino}-6-{[(4-methoxyphenyl)amino]sulfonyl}-3-hydroquinazolin-4-one] | – | inactive | – | – | – | – | – |

Source: US20020042423A1, “METHODS FOR IDENTIFYING COMPOUNDS THAT BIND TO HLA MOLECULES AND USE OF SUCH COMPOUNDS AS HLA-AGONISTS OR ANTAGONISTS” (priority 1998, published 2002)
